From the supplement of paper PMC10307832

Legend:
Assay in all cases: relative viability (nuclei count vs DMSO), 5 days (fraction); higher = more cells survive
Carfilzomib + Bortezomib = compound: CC(C)C[C@H](NC(=O)[C@H](CCc1ccccc1)NC(=O)CN1CCOCC1)C(=O)N[C@@H](Cc1ccccc1)C(=O)N[C@@H](CC(C)C)C(=O)[C@@]1(C)CO1 [Carfilzomib] + CC(C)C[C@H](NC(=O)[C@H](Cc1ccccc1)NC(=O)c1cnccn1)B(O)O [Bortezomib] (partner 0.002 µM)
Summary of the method: (§1)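 After 5 days of treatment, lung cancer cells in 1536-well plates were fixed and stained in a single step (final 0.05% Triton X-100, 1% formaldehyde, 1 ug/ml Hoechst) and their nuclei counted on 4× images. Treatment had been applied by pin tool the day after seeding as one drug alone or as a fixed anchor-drug dose with five library-drug doses (not always all listed) in √10 steps. Relative viability is the nuclei count of treated wells divided by that of vehicle wells, and values are medians of duplicate plates.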

Carfilzomib + Tozasertib = compound: CC(C)C[C@H](NC(=O)[C@H](CCc1ccccc1)NC(=O)CN1CCOCC1)C(=O)N[C@@H](Cc1ccccc1)C(=O)N[C@@H](CC(C)C)C(=O)[C@@]1(C)CO1 [Carfilzomib] + Cc1cc(Nc2cc(N3CCN(C)CC3)nc(Sc3ccc(NC(=O)C4CC4)cc3)n2)n[nH]1 [Tozasertib] (partner 0.1 µM)
Summary of the method: as §1

Olaparib + Bortezomib = compound: O=C(c1cc(Cc2n[nH]c(=O)c3ccccc23)ccc1F)N1CCN(C(=O)C2CC2)CC1 [Olaparib] + CC(C)C[C@H](NC(=O)[C@H](Cc1ccccc1)NC(=O)c1cnccn1)B(O)O [Bortezomib] (partner 0.002 µM)
Summary of the method: as §1

Crizotinib + Tozasertib = compound: C[C@@H](Oc1cc(-c2cnn(C3CCNCC3)c2)cnc1N)c1c(Cl)ccc(F)c1Cl [Crizotinib] + Cc1cc(Nc2cc(N3CCN(C)CC3)nc(Sc3ccc(NC(=O)C4CC4)cc3)n2)n[nH]1 [Tozasertib] (partner 0.1 µM)
Summary of the method: as §1

Cell Line | relative viability (Carfilzomib + Bortezomib; first compound 0.001 µM) | relative viability (Carfilzomib + Bortezomib; first compound 0.003162 µM) | relative viability (Carfilzomib + Bortezomib; first compound 0.01 µM) | relative viability (Carfilzomib + Bortezomib; first compound 0.03162 µM) | relative viability (Carfilzomib + Bortezomib; first compound 0.1 µM) | relative viability (Carfilzomib + Tozasertib; first compound 0.001 µM) | relative viability (Carfilzomib + Tozasertib; first compound 0.003162 µM) | relative viability (Carfilzomib + Tozasertib; first compound 0.01 µM) | relative viability (Carfilzomib + Tozasertib; first compound 0.03162 µM) | relative viability (Carfilzomib + Tozasertib; first compound 0.1 µM) | relative viability (Olaparib + Bortezomib; first compound 0.08 µM) | relative viability (Olaparib + Bortezomib; first compound 0.253 µM) | relative viability (Olaparib + Bortezomib; first compound 2.53 µM) | relative viability (Olaparib + Bortezomib; first compound 8 µM) | relative viability (Crizotinib + Tozasertib; first compound 0.01 µM) | relative viability (Crizotinib + Tozasertib; first compound 0.03162 µM) | relative viability (Crizotinib + Tozasertib; first compound 0.1 µM) | relative viability (Crizotinib + Tozasertib; first compound 0.3162 µM) | relative viability (Crizotinib + Tozasertib; first compound 1 µM)
LXF-289 | 1.03 | 0.957 | 0.653 | 0.0711 | 0.0774 | 0.186 | 0.186 | 0.104 | 0.0498 | 0.0494 | 1.09 | 0.941 | 1.03 | 0.992 | 0.221 | 0.201 | 0.18 | 0.157 | 0.197
NCI-H23 | 1.01 | 0.92 | 0.445 | 0.165 | 0.125 | 0.382 | 0.428 | 0.376 | 0.122 | 0.13 | 1.28 | 0.717 | 0.581 | 0.482 | 0.414 | 0.36 | 0.307 | – | 0.363
NCI-H322M | 1.27 | 1.31 | 1.35 | 1.21 | 0.66 | 0.473 | 0.52 | 0.556 | 0.433 | 0.337 | 1.27 | 1.19 | 1.2 | 1.24 | 0.482 | 0.515 | 0.48 | 0.49 | 0.459
NCI-H441 | 0.25 | 0.383 | 0.14 | 0.153 | 0.111 | 0.6 | 0.626 | 0.49 | 0.193 | 0.247 | – | 0.175 | 0.489 | 0.382 | 0.527 | 0.609 | 0.536 | – | 0.837
NCI-H460 | 1.06 | 1.12 | 1 | 0.0827 | 0.0107 | 0.363 | 0.51 | 0.48 | 0.512 | 0.0337 | 1.14 | 1.02 | 0.891 | 0.277 | 0.368 | 0.441 | 0.474 | 0.248 | 0.455
